Assay results as given in patent US10662214B2, “Compound of 4′-thionucleoside, as well as preparation method therefor, pharmaceutical composition thereof and application thereof” (Sichuan Kelun-Biotech Biopharmaceutical Co., Ltd., priority 2015, dated 2020).

Tests used:
[1] = system: pancreatic cancer cell BxPC-3; assay: CCK-8 inhibition of proliferation, BxPC-3; type: cell-based, human; details: for inhibitory effect on pancreatic cancer cell BxPC-3 (in words): FIG. 1: 5-10000 nM; for IC50: Homo sapiens, BXPC-3, CCK-8, 72 h incubation
Protocol: (§1) The tumor cell lines employed in the present experiment were gastric cancer cell NCI-N87 (obtained from Guangzhou Jennio Biological Technology Co., Ltd.), colorectal cancer cell HCT-116 (obtained from Chengdu Center for Safety Evaluation of Drugs), colorectal cancer cell HCT-15 and pancreatic cancer cell BxPC-3 (both obtained from ATCC, US).
(§2) Each of the cell lines is cultured in a corresponding culture medium (RPMI-1640, IMDM and L-15 culture medium (manufacturer: Gibco)) supplemented with 10% heat inactivated Fetal Bovine Serum (manufacturer: Sigma), in an incubator at 37° C. and 5% CO2.
(§3) For each type of tumor cells, a blank group, a vehicle group (containing 1‰ DMSO) and 8 groups with a test compound at concentrations of 5 nM, 10 nM, 50 nM, 100 nM, 500 nM, 1000 nM, 5000 nM, and 10000 nM (with each concentration in triplicate) were set.
(§4) Appropriate amounts of test compounds were weighted, and dissolved in DMSO (cell culture grade, Sigma) to prepare stock solutions of various concentration gradients according to desired concentrations. During incubation, they were diluted by 1000 times as necessary, and incubation solutions with various drug concentrations were prepared (compound stock solution:medium containing 2% FBS=1:1000).
(§5) The experiment was performed according to a CCK-8 method as described below. Cancer cells to be tested were seeded in a 96-well culture plate at a concentration of 5˜10×10^4/mL (100 μL/well), followed by incubation at 37° C. and 5% CO2 for 24 h. The medium was discarded, and incubation solutions with different drug concentrations (200 μL) were respectively added to each well, and the cells were further incubated for 72 h. After the incubation, a CCK-8 solution (20 μL/well) was added to each well to be tested, and the incubation was continued for 4 h in the incubator. OD values at two wavelengths (Detection wavelength: 450 nm, and reference wavelength: 650 nm) were determined on a multifunctional fully-automatic microplate reader.
(§6) The inhibitory rate of tumor cell growth was calculated according to the following formula: Inhibitory rate=[(ODvehicle−ODblank)−(ODdrug−ODblank)]/(ODvehicle−ODblank)*100%
(§7) Based on the inhibitory rate, a concentration-inhibitory rate curve was fit using GraphPad prism 5.0 software, and IC50 was calculated.

[2] = system: colorectal cancer cell HCT-15; assay: CCK-8 inhibition of proliferation, HCT-15; type: cell-based, human; details: for inhibitory effect on colorectal cancer cell HCT-15 (in words): FIG. 1: 5-10000 nM; for IC50: Homo sapiens, HCT-15, CCK-8, 72 h incubation
Protocol: as §1, §2, §3, §4, §5, §6, §7

[3] = system: gastric cancer cell NCI-N87; assay: CCK-8 inhibition of proliferation, NCI-N87; type: cell-based, human; details: for inhibitory effect on gastric cancer cell NCI-N87 (in words): FIG. 1: 5-10000 nM; for IC50: Homo sapiens, NCI-N87, CCK-8, 72 h incubation
Protocol: as §1, §2, §3, §4, §5, §6, §7

[4] = Intravenous toxicity test in mice (administration for 7 days); type: in vivo; details: mouse, in vivo, iv
Description: This test was used to investigate the toxic reactions after intravenous administration of compound C8 to normal KM mice for 7 consecutive days.
KM mice passing the quarantine control were randomized into 4 groups (3 mice/gender/group). The test compound and vehicle control were formulated according to Experimental example 2. The mortality, appearance, behavior, mental status, secretion and excreta etc. of the animals were observed every day for 7 consecutive days after the administration, and the animals were anatomized on day 8.

[5] = Oral toxicity test in mice (administration for 7 days); type: in vivo; details: once per day for 7 days
Protocol: Normal Male and female Kunming mice (SPF grade, obtained from Laboratory Animal Center in Sichuan Academy of Chinese Medicine Science) were randomized by weight into groups. The test compound and vehicle control were formulated according to Experimental example 2. The dosage volume was 10 mL/kg, and the administration was performed by oral gavage, once per day for 7 consecutive days.

Structure (SMILES) | inhibitory effect on pancreatic cancer cell BxPC-3 (in words) [1] | IC50 [1] [nM] | inhibitory effect on colorectal cancer cell HCT-15 (in words) [2] | IC50 [2] [nM] | inhibitory effect on gastric cancer cell NCI-N87 (in words) [3] | IC50 [3] [nM] | body weight decrease on day 8, female mice [4] [%] | body weight decrease on day 8, male mice [4] [%] | symptoms observed on day 8 ([4]; 20 mg/kg) | dosage at which death of animals occurred ([5]; oral gavage) | Results: mortality (3 Male + 3 Female) ([5]; ~77 μmol/kg oral gavage)
CC(C)OC(=O)[C@H](C)N[P@](=O)(OC[C@H]1S[C@@H](n2ccc(N)nc2=O)[C@@H](F)[C@@H]1O)Oc1ccc2c(c1)OCO2 [Compound C14, (S)-isopropyl 2-(((S)-(((2R,3S,4S,5R)-5-(4-amino-2-oxopyrimidin-1(2H)-yl)-4-fluoro-3-hydroxytetrahydrothiophen-2-yl)methoxy)(benzo[d][1,3]dioxol-5-yloxy)phosphoryl)amino)propanoate] | excellent inhibitory effects | 2820 | excellent inhibitory effects | 9780 | excellent inhibitory effects | 180 |  |  |  |  | 
CC(C)OC(=O)[C@H](C)NP(=O)(OC[C@H]1S[C@@H](n2ccc(N)nc2=O)[C@@H](F)[C@@H]1O)Oc1ccc2ccoc2c1 (stereo partly drawn) [Compound C19, (S)-isopropyl 2-(((((2R,3S,4S,5R)-5-(4-amino-2-oxopyrimidin-1(2H)-yl)-4-fluoro-3-hydroxytetrahydrothiophen-2-yl)methoxy)(benzofuran-6-yloxy)phosphoryl)amino)propanoate] | excellent inhibitory effects | 680 |  |  | excellent inhibitory effects | 350 |  |  |  |  | 
CC(C)OC(=O)[C@H](C)NP(=O)(OC[C@H]1S[C@@H](n2ccc(N)nc2=O)[C@@H](F)[C@@H]1O)Oc1ccc2c(c1)OCC2 (stereo partly drawn) [Compound C18, (S)-isopropyl 2-(((((2R,3S,4S,5R)-5-(4-amino-2-oxopyrimidin-1(2H)-yl)-4-fluoro-3-hydroxytetrahydrothiophen-2-yl)methoxy)((2,3-dihydrobenzofuran-6-yl)oxy)phosphoryl)amino)propanoate] | excellent inhibitory effect | 2740 |  |  |  |  |  |  |  |  | 
C[C@H](NP(=O)(OC[C@H]1S[C@@H](n2ccc(N)nc2=O)[C@@H](F)[C@@H]1O)Oc1ccccc1)C(=O)OCc1ccccc1 (stereo partly drawn) [Compound C2, (S)-benzyl 2-(((((2R,3S,4S,5R)-5-(4-amino-2-oxopyrimidin-1(2H)-yl)-4-fluoro-3-hydroxytetrahydrothiophen-2-yl)methoxy)(phenoxy)phosphoryl)amino)propanoate] | excellent inhibitory effects | 1280 | excellent inhibitory effects | 2970 | excellent inhibitory effects | 250 |  |  |  |  | 
C[C@H](NP(=O)(OC[C@H]1S[C@@H](n2ccc(N)nc2=O)[C@@H](F)[C@@H]1O)Oc1ccccc1)C(=O)OCc1ccc(F)cc1 (stereo partly drawn) [Compound C15, (2S)-4-fluorobenzyl 2-(((((2R,3S,4S,5R)-5-(4-amino-2-oxopyrimidin-1(2H)-yl)-4-fluoro-3-hydroxytetrahydrothiophen-2-yl)methoxy)(phenoxy)phosphoryl)amino)propanoate] | excellent inhibitory effects | 1800 | excellent inhibitory effects | 4080 | excellent inhibitory effects | 240 |  |  |  |  | 
Nc1ccn([C@@H]2S[C@H](CO)[C@@H](O)[C@@H]2F)c(=O)n1 [Compound A, 1-((2R,3S,4S,5R)-3-fluoro-4-hydroxy-5-(hydroxymethyl)tetrahydrothiophen-2-yl)cytosine, reference compound] |  |  |  |  |  |  | 20.2 | 18.1 | a hunched stance and weight loss | about 77 μmol/kg | symptoms, and two
CC(C)OC(=O)[C@H](C)NP(=O)(OC[C@H]1S[C@@H](n2ccc(N)nc2=O)[C@@H](F)[C@@H]1O)Oc1ccc(F)c2c1CCO2 (stereo partly drawn) [Compound C17, (S)-isopropyl 2-(((((2R,3S,4S,5R)-5-(4-amino-2-oxopyrimidin-1(2H)-yl)-4-fluoro-3-hydroxytetrahydrothiophen-2-yl)methoxy)((7-fluoro-2,3-dihydrobenzofuran-4-yl)oxy)phosphoryl)amino)propanoate] | excellent inhibitory effects | 3800 |  |  | excellent inhibitory effects | 630 |  |  |  |  | 
CC(C)OC(=O)[C@H](C)N[P@@](=O)(OC[C@H]1S[C@@H](n2ccc(N)nc2=O)[C@@H](F)[C@@H]1O)Oc1ccc2c(c1)OCO2 [Compound C13, (S)-isopropyl 2-(((R)-(((2R,3S,4S,5R)-5-(4-amino-2-oxopyrimidin-1 (2H)-yl)-4-fluoro-3-hydroxytetrahydrothiophen-2-yl)methoxy)(benzo[d][1,3]dioxol-5-yloxy)phosphoryl)amino)propanoate] |  |  |  |  | excellent inhibitory effect | 550 |  |  |  |  | 
CC(C)OC(=O)[C@H](C)NP(=O)(OC[C@H]1S[C@@H](n2ccc(N)nc2=O)[C@@H](F)[C@@H]1O)Oc1cccc2c1OCCO2 (stereo partly drawn) [Compound C16, (S)-isopropyl 2-(((((2R,3S,4S,5R)-5-(4-amino-2-oxopyrimidin-1(2H)-yl)-4-fluoro-3-hydroxytetrahydrothiophen-2-yl)methoxy)((2,3-dihydrobenzo[b][1,4]dioxin-5-yl)oxy)phosphoryl)amino)propanoate] | excellent inhibitory effects | 1150 |  |  | excellent inhibitory effects | 300 |  |  |  |  | 
